In patent publication US6689750B1, “Bactericide compositions prepared and obtained from microccus varians” (priority 1995, dated 2004):

Tests used:
[1] = test system: Lactobacillus helveticus (N 2); experiment: Inactivation by enzymes, agar well test; assay type: physicochemical; details: two indicator strains
Gram-negative bacteria = experiment: Inhibition spectrum, agar well test, summary; assay type: cell-based; details: Table V
From the text: The inhibition spectrum of the supernatant is thus determined.

[2] = test system: strain of Lactococcus lactis which produces lacticin 481; experiment: Inhibition spectrum test on the lacticin 481 producer; assay type: cell-based
From the text: When the strain of Lactococcus lactis which produces lacticin 481 is inoculated in the presence of a […] extract, as previously described in the inhibition spectrum test, the growth of the said strain is seen to be inhibited. The strain of Lactococcus lactis which produces lacticin 481 is immune to its own bacteriocin, lacticin 481, but is not immune to the […] produced by either of the two Micrococcus varians strains according to the present invention.

Substance | influence of catalase on bactericidal activity [1] | inhibitory effect on the growth of Gram-negative bacteria (Gram-negative bacteria) | growth of the lacticin 481 producing strain [2]
variacin: bacteriocin from Micrococcus varians strains CNCM I-1586 and CNCM I-1587, amino acid sequence SEQ ID NO:1 (GSGVIPTISHECHMNSFQFVFTCCS) | not found to exert any influence | does not exert any inhibitory effect | –
lacticin 481 | – | – | immune
